Test results: patent US6670345B1 (Dabur Research Foundation, priority 1997, dated 2003)
In brackets after ≈: the same amount, converted by molar mass.

Columns and labels:
Conditions in all cases: 72 hours
[1] = test system: human larynx (HeP.2); assay: MTT cytotoxicity assay, human larynx (HeP.2); type: cell-based
Procedure: (§1) After 72 hours, the assay was terminated and percent cyotoxicities calculated.

[2] = test system: human colon (HT29); assay: MTT cytotoxicity assay, human colon (HT29); type: cell-based
Procedure: as §1

[3] = test system: lymphoma cells (U937); assay: MTT cytotoxicity assay, lymphoma cells (U937); type: cell-based, human
Procedure: as §1

[4] = test system: ovarian cancer cells (PA-1); assay: MTT cytotoxicity assay, ovarian cancer cells (PA-1); type: cell-based, human
Procedure: as §1

[5] = test system: human prostate (DU145); assay: MTT cytotoxicity assay, human prostate (DU145); type: cell-based
Procedure: as §1

[6] = test system: leukemia cells (MOLT-4); assay: MTT cytotoxicity assay, leukemia cells (MOLT-4); type: cell-based, human
Procedure: as §1

[7] = test system: human lung (L132); assay: MTT cytotoxicity assay, human lung (L132); type: cell-based
Procedure: as §1

Compound | ED50 Larynx Hep. 2 [1] | ED50 Colon HT-29 [2] | ED50 Lymphoma U937 [3] | ED50 Ovary PA-I [4] | ED50 Prostate DU 145 [5] | ED50 Leukemia MOLT-4 [6] | ED50 Lung L 132 [7]
C=C(C)[C@@H]1CC[C@]2(C(=O)O)CC[C@]3(C)[C@H](CC[C@@H]4[C@@]5(C)CC[C@H](O)C(C)(C)[C@@H]5CC[C@]43C)[C@@H]12 [BA] | >10 µg/mL | 1.8 µg/mL (≈ 3.94 µM) | 0.7 µg/mL (≈ 1.53 µM) | 17 µg/mL (≈ 37.2 µM) | >10 µg/mL | 1.9 µg/mL (≈ 4.16 µM) | 3.2 µg/mL (≈ 7.01 µM)
C=C(C)C1CCC2(C(=O)O)CCC3(C)C(CCC4C5(C)CCC(OC(=O)c6ccc(CCCCCCC)cc6)C(C)(C)C5CCC43C)C12 (centres unmarked) [Derivative 1138] | 2.0 µg/mL (≈ 3.03 µM) | >10 µg/mL | 1.1 µg/mL (≈ 1.67 µM) | 1.3 µg/mL (≈ 1.97 µM) | >10 µg/mL | 2.0 µg/mL (≈ 3.03 µM) | 7.0 µg/mL (≈ 10.6 µM)
CC(C)C1CCC2(C(=O)O)CCC3(C)C(CCC4C5(C)CCC(OC(=O)c6ccc(F)cc6F)C(C)(C)C5CCC43C)C12 (centres unmarked) [Derivative 937] | 5.9 µg/mL (≈ 9.85 µM) | 1.7 µg/mL (≈ 2.84 µM) | 1.2 µg/mL (≈ 2 µM) | 1.6 µg/mL (≈ 2.67 µM) | 2.5 µg/mL (≈ 4.17 µM) | 0.9 µg/mL (≈ 1.5 µM) | 1.1 µg/mL (≈ 1.84 µM)
CC(C)C1CCC2(C(=O)O)CCC3(C)C(CCC4C5(C)CCC(NC(=O)CCl)C(C)(C)C5CCC43C)C12 (centres unmarked) [Derivative 1022] | 3.5 µg/mL (≈ 6.55 µM) | >10 µg/mL | 5.5 µg/mL (≈ 10.3 µM) | 0.6 µg/mL (≈ 1.12 µM) | >10 µg/mL | 1.8 µg/mL (≈ 3.37 µM) | 4.7 µg/mL (≈ 8.8 µM)
C=C(C)C1CCC2(C(=O)O)CCC3(C)C(CCC4C5(C)CCC(OC(=O)C67CCC(C(C)C)C6C6CCC8C9(C)CC(Br)C(=O)C(C)(C)C9CCC8(C)C6(C)CC7)C(C)(C)C5CCC43C)C12 (centres unmarked) [Derivative 1155] | >10 µg/mL | >10 µg/mL | >10 µg/mL | >4.0 µg/mL | >10 µg/mL | 1.1 µg/mL (≈ 1.13 µM) | >10 µg/mL
C=C(C)C1CCC2(C(=O)O)CCC3(C)C(CCC4C5(C)CCC(OC(=O)c6ccccc6C(F)(F)F)C(C)(C)C5CCC43C)C12 (centres unmarked) [Derivative 942] | 10.0 µg/mL (≈ 15.9 µM) | >10 µg/mL | 2.2 µg/mL (≈ 3.5 µM) | >4.0 µg/mL | >10 µg/mL | 0.5 µg/mL (≈ 0.795 µM) | 4.0 µg/mL (≈ 6.36 µM)
CC(C)C1CCC2(C(=O)O)CCC3(C)C(CCC4C5(C)CCC(=NNc6ccc(F)cc6)C(C)(C)C5CCC43C)C12 (centres unmarked) [Derivative 829] | >10 µg/mL | 1.3 µg/mL (≈ 2.3 µM) | 0.5 µg/mL (≈ 0.885 µM) | 0.5 µg/mL (≈ 0.885 µM) | >10 µg/mL | 0.4 µg/mL (≈ 0.708 µM) | >4 µg/mL
C=CC(=O)OC(=O)C12CCC(C(C)C)C1C1CCC3C4(C)CCC(O)C(C)(C)C4CCC3(C)C1(C)CC2 (centres unmarked) [Derivative 1103] | 3.0 µg/mL (≈ 5.85 µM) | 10.0 µg/mL (≈ 19.5 µM) | 1.0 µg/mL (≈ 1.95 µM) | 1.5 µg/mL (≈ 2.93 µM) | >4 µg/mL | 1.9 µg/mL (≈ 3.71 µM) | 4.0 µg/mL (≈ 7.8 µM)
C=C(C)C1CCC2(C(=O)O)CCC3(C)C(CCC4C5(C)CCC(OC(=O)c6cc(F)cc(F)c6)C(C)(C)C5CCC43C)C12 (centres unmarked) [Derivative 935] | >10 µg/mL | >10 µg/mL | 2.6 µg/mL (≈ 4.36 µM) |  | 3.2 µg/mL (≈ 5.36 µM) | 0.6 µg/mL (≈ 1.01 µM) | 1.2 µg/mL (≈ 2.01 µM)
C=C(C)C1CCC2(C(=O)O)CCC3(C)C(CCC4C5(C)CCC(OC(=O)c6cccc(C(F)(F)F)c6)C(C)(C)C5CCC43C)C12 (centres unmarked) [Derivative 939] | 4.0 µg/mL (≈ 6.36 µM) | >10 µg/mL | 5.7 µg/mL (≈ 9.06 µM) | >4.0 µg/mL | >10 µg/mL | 1.4 µg/mL (≈ 2.23 µM) | 2.7 µg/mL (≈ 4.29 µM)
C=CC(=O)OC(=O)C12CCC(C(=C)C)C1C1CCC3C4(C)CCC(O)C(C)(C)C4CCC3(C)C1(C)CC2 (centres unmarked) [Derivative 1101] | 1.6 µg/mL (≈ 3.13 µM) | >10 µg/mL | 1.2 µg/mL (≈ 2.35 µM) | 3.5 µg/mL (≈ 6.85 µM) | >10 µg/mL | 1.9 µg/mL (≈ 3.72 µM) | 1.7 µg/mL (≈ 3.33 µM)
C=C(C)C1CCC2(C(=O)O)CCC3(C)C(CCC4C5(C)CCC(OS(C)(=O)=O)C(C)(C)C5CCC43C)C12 (centres unmarked) [Derivative 751] | 7.0 µg/mL (≈ 13.1 µM) |  | >4 µg/mL |  | >10 µg/mL | 0.65 µg/mL (≈ 1.22 µM) | 5 µg/mL (≈ 9.35 µM)
CC(C)C1CCC2(C(=O)O)CCC3(C)C(CCC4C5(C)CCC(=NNC(=O)c6ccccc6)C(C)(C)C5CCC43C)C12 (centres unmarked) [Derivative 807] | 4.0 µg/mL (≈ 6.96 µM) |  |  | 1.7 µg/mL (≈ 2.96 µM) | >10 µg/mL | 1.0 µg/mL (≈ 1.74 µM) | <0.5 µg/mL
C=C(C)C1CCC2(C(=O)O)CCC3(C)C(CCC4C5(C)CCC(OC(=O)c6ccc(CCCCC)cc6)C(C)(C)C5CCC43C)C12 (centres unmarked) [Derivative 1104] | 1.7 µg/mL (≈ 2.69 µM) | 3.5 µg/mL (≈ 5.55 µM) | 1.1 µg/mL (≈ 1.74 µM) | 0.8 µg/mL (≈ 1.27 µM) | 2.0 µg/mL (≈ 3.17 µM) | 1.5 µg/mL (≈ 2.38 µM) | 5.9 µg/mL (≈ 9.35 µM)
CC(C)C1CCC2(C(=O)O)CCC3(C)C(CCC4C5(C)CCC(OC(=O)c6cccc(C(F)(F)F)c6)C(C)(C)C5CCC43C)C12 (centres unmarked) [Derivative 940] | 5.4 µg/mL (≈ 8.56 µM) | >10 µg/mL | 0.8 µg/mL (≈ 1.27 µM) | 3.8 µg/mL (≈ 6.02 µM) | >4 µg/mL | 0.4 µg/mL (≈ 0.634 µM) | 2.6 µg/mL (≈ 4.12 µM)
CC(C)C1CCC2(C(=O)O)CCC3(C)C(CCC4C5(C)CCC(OC(=O)c6ccccc6C(F)(F)F)C(C)(C)C5CCC43C)C12 (centres unmarked) [Derivative 943] | 2.0 µg/mL (≈ 3.17 µM) | >10 µg/mL | 3.2 µg/mL (≈ 5.07 µM) | >4.0 µg/mL | >4 µg/mL | 1.6 µg/mL (≈ 2.54 µM) | 4.0 µg/mL (≈ 6.34 µM)
CC(C)C1CCC2(C(=O)O)CCC3(C)C(CCC4C5(C)CCC(N=Cc6ccc(F)c(F)c6)C(C)(C)C5CCC43C)C12 (centres unmarked) [Derivative 998] | 3.0 µg/mL (≈ 5.16 µM) | 4.0 µg/mL (≈ 6.87 µM) | 1.6 µg/mL (≈ 2.75 µM) | 1.2 µg/mL (≈ 2.06 µM) | 2.2 µg/mL (≈ 3.78 µM) | 1.9 µg/mL (≈ 3.27 µM) | 2.5 µg/mL (≈ 4.3 µM)
COc1ccc(NNC2CCC3(C)C(CCC4(C)C3CCC3C5C(C(C)C)CCC5(C(=O)O)CCC34C)C2(C)C)cc1 (centres unmarked) [Derivative 912] | 7.0 µg/mL (≈ 12.1 µM) | 0.35 µg/mL (≈ 0.605 µM) | 1.2 µg/mL (≈ 2.07 µM) |  | 8.5 µg/mL (≈ 14.7 µM) | 1.0 µg/mL (≈ 1.73 µM) | >4 µg/mL
C=C(C)C1CCC2(C(=O)OCC(=O)OC)CCC3(C)C(CCC4C5(C)CCC(NCCO)C(C)(C)C5CCC43C)C12 (centres unmarked) [Derivative 1027] | 4.2 µg/mL (≈ 7.34 µM) | 7.2 µg/mL (≈ 12.6 µM) | 4.5 µg/mL (≈ 7.87 µM) | >4.0 µg/mL | 5.7 µg/mL (≈ 9.97 µM) | 2.0 µg/mL (≈ 3.5 µM) | 7.0 µg/mL (≈ 12.2 µM)
CC(C)C1CCC2(C(=O)O)CCC3(C)C(CCC4C5(C)CCC(N=Cc6ccc(F)cc6F)C(C)(C)C5CCC43C)C12 (centres unmarked) [Derivative 1065] | 2.6 µg/mL (≈ 4.47 µM) | 4.9 µg/mL (≈ 8.42 µM) | 1.9 µg/mL (≈ 3.27 µM) | 1.4 µg/mL (≈ 2.41 µM) | 2.5 µg/mL (≈ 4.3 µM) | 1.0 µg/mL (≈ 1.72 µM) | 3.4 µg/mL (≈ 5.84 µM)
CC(C)C1CCC2(C(=O)O)CCC3(C)C(CCC4C5(C)CCC(NNc6ccccc6)C(C)(C)C5CCC43C)C12 (centres unmarked) [Derivative 878] | 2.25 µg/mL (≈ 4.1 µM) | 1.75 µg/mL (≈ 3.19 µM) | 0.4 µg/mL (≈ 0.729 µM) | 3.5 µg/mL (≈ 6.38 µM) |  | 1.6 µg/mL (≈ 2.92 µM) | 0.8 µg/mL (≈ 1.46 µM)
C=C(C)C1CCC2(C(=O)O)CCC3(C)C(CCC4C5(C)CCC(OC(=O)Cc6cc(OC)ccc6OC)C(C)(C)C5CCC43C)C12 (centres unmarked) [Derivative 1108] | 1.7 µg/mL (≈ 2.68 µM) | >10 µg/mL | 1.0 µg/mL (≈ 1.58 µM) | 1.3 µg/mL (≈ 2.05 µM) | >4 µg/mL | 1.5 µg/mL (≈ 2.36 µM) | 4.6 µg/mL (≈ 7.25 µM)
CC(C)C1CCC2(C(=O)OC3CCC4(C)C(CCC5(C)C4CCC4C6C(C(C)C)CCC6(C(=O)O)CCC45C)C3(C)C)CCC3(C)C(CCC4C5(C)CC(Br)C(=O)C(C)(C)C5CCC43C)C12 (centres unmarked) [Derivative 1161] | 1.4 µg/mL (≈ 1.43 µM) | 3.5 µg/mL (≈ 3.58 µM) | 0.3 µg/mL (≈ 0.307 µM) | 1.2 µg/mL (≈ 1.23 µM) | 0.4 µg/mL (≈ 0.41 µM) | 0.34 µg/mL (≈ 0.348 µM) | 3.5 µg/mL (≈ 3.58 µM)
CC(C)C1CCC2(C(=O)O)CCC3(C)C(CCC4C5(C)CCC(OS(C)(=O)=O)C(C)(C)C5CCC43C)C12 (centres unmarked) [Derivative 789] | >10 µg/mL | 1.4 µg/mL (≈ 2.61 µM) | 1.4 µg/mL (≈ 2.61 µM) | >4.0 µg/mL | >10 µg/mL | 2.0 µg/mL (≈ 3.73 µM) | 6.5 µg/mL (≈ 12.1 µM)
